Test results: patent US10463651B2, “3-(1H-pyrrolo[3,2-C]pyridin-2-YL)-1H-indazoles and therapeutic uses thereof” (Samumed, LLC, priority 2015, dated 2019)
pEC50: −log10 of the molar value.

Columns and labels:
Type in all cases: cell-based
[1] = tested on: Wnt activity (Sp5-Luc reporter, SW480 colon carcinoma cells); assay: Screening assay for Wnt activity (Sp5-Luc reporter gene assay in SW480 cells); conditions: Homo sapiens; for pEC50: Sp5-Luc reporter, SW480 cells, incubated overnight
From the text: The screening assay for Wnt activity is described as follows. Reporter cell lines can be generated by stably transducing cancer cell lines (e.g., colon cancer) or primary cells (e.g., IEC-6 intestinal cells) with a lentiviral construct that includes a Wnt-responsive promoter driving expression of the firefly luciferase gene.
SW480 colon carcinoma cells were transduced with a lentiviral vector expressing luciferase with a human Sp5 promoter consisting of a sequence of eight TCF/LEF binding sites. SW480 cells stably expressing the Sp5-Luc reporter gene and a hygromycin resistance gene were selected by treatment with 150 μg/mL of hygromycin for 7 days. These stably transduced SW480 cells were expanded in cell culture and used for all further screening activities. […] For Sp5-Luc reporter gene assays, the cells were plated at 4,000 cells/well in 384-well plates with medium containing 1% fetal bovine serum and incubated overnight at 37° C. and 5% CO2. Following incubation, 20 μl of BrightGlo luminescence reagent (Promega) was added to each well of the 384-well assay plates. The plates were placed on an orbital shaker for 2 min and then luminescence was quantified using the Envision (Perkin Elmer) plate reader. Readings were normalized to DMSO only treated cells, and normalized activities were utilized for EC50 calculations using the dose-response log (inhibitor) vs. response-variable slope (four parameters) nonlinear regression feature available in GraphPad Prism 5.0 (or Dotmatics).

SW480 colon cancer cells = assay: Cell viability assay (CellTiter-Blue); conditions: Homo sapiens; for pEC50: 96 h, SW480 cell viability, four days, CellTiter-Blue
Experimental: Representative compounds were screened using the following assay procedure to assess the effect on cell viability as described below.
Approximately 2×10^3 SW480 colon cancer cells were seeded into each well and allowed to incubate in the presence or absence of compound for four days at 37° C./5% CO2. Eight replicates of DMSO-treated cells served as controls and cells treated with compound were performed in duplicate.
After incubation, 20 μL of CellTiter-Blue (Promega) was added to each well allowed to incubate for approximately 3 hours. This reagent was a buffered solution which contains resazurin, metabolically active cells were able to reduce rezarurin (blue) into resorufin (pink) which was highly fluorescent. This measured fluorescence was used as a readout for cell viability.

[2] = tested on: primary human fibroblasts derived from IPF patients (LL29 cells) treated with TGF-β1; assay: Inhibition of the fibrotic process (αSMA staining) in TGF-β1-treated fibroblasts; conditions: Fibroblast, 96 h; for pEC50: % αSMA-positive LL29 cells, TGF-β1 20 ng/mL, 4 days; for inhibition at 10 µM: read-out: percent inhibition at 10 μM
Experimental: Representative compounds were screened using primary human fibroblasts (derived from IPF patients) treated with TGF-β1 to determine their ability to inhibit the fibrotic process.
LL29 cells are plated at 1,500 cells/well in 80 μL/well F12 medium supplemented with 1% Fetal Bovine Serum. […] Wells treated with TGF-P1 and containing DMSO were used as controls. […] Following incubation for 4 days, SYTOX green nucleic acid stain (Life Technologies [Thermo Fisher Scientific]) was added to the wells at a final concentration of 1 μM and incubated at room temperature for 30 min.

[3] = tested on: primary human mesenchymal stem cells (hMSCs); assay: Induction of chondrogenesis in hMSCs (Rhodamine B / Nile Red nodule imaging); conditions: for Emax: maximum activity relative to TGF-β3 (10 ng/mL) positive control, read-out: Max. Activity as % TGF-β3 activity; for EC50: concentration required to induce 50% levels of chondrogenesis vs TGF-β3 positive control, read-out: Conc (nM) of 50% TGF-β3 activity
From the text: Representative compounds were screened using primary human mesenchymal stem cells (hMSCs) to determine their ability to induce chondrogenesis (process by which cartilage is developed).
Primary human mesenchymal stem cells (hMSCs) were purchased from Lonza (Walkersville, Md.) and expanded in Mesenchymal Stem Cell Growth Media (Lonza). Cells between passage 3 and 6 were used for the experiments.
Area of nodules in each well was normalized to the average of 3 DMSO treated wells on the same plate using Excel (Microsoft Inc.). The normalized averages (fold change over DMSO) of 2 or 3 replicate wells for each compound concentration were calculated. Due to solubility limitations of some of the compounds, curve fitting was incomplete leading to inaccurate EC50 determinations.
Using TGF-β3 as a positive control, the concentration of representative compounds required to induce 50% levels of chondrogenesis is reported. In addition, the maximum activity of each compound and the respective dose that each compound reached maximum chondrogenesis activity is reported.

IL-6 (THP-1 cells) = assay: IL-6 inhibition in LPS-stimulated THP-1 cells (HTRF); conditions: Homo sapiens; IL6 by HTRF, THP-1 cells, 500 ng/mL LPS, 22 hours
Experimental: THP-1 cells were cultured in basal media with 1% FBS for 24 hours before the start of the assay. […] THP-1 cells were plated at 5000 cells/well in the 384-well plates and incubated at 37° C. for 2 h. 500 ng/mL of LPS was added after 2 hours and cells were incubated for another 22 hours at 37° C. Plates were spun in a centrifuge for 1 minute at […] and a mixture of anti-IL6 XL665, and anti-IL6 Cryptate diluted in reconstitution buffer (Cisbio Inc.) was added to each well. Following incubation for 3 hrs at room temperature, Homogeneous Time-Resolved Fluorescence (HTRF) was measured using the Envision (Perkin Elmer) at 665 nm and […]. The ratio of fluorescence at 665 nm to 620 nm was used as a readout for IL6 quantification. All samples were processed in duplicate. Readings were normalized to DMSO treated cells and normalized activities were utilized for EC50 calculations using the dose-response log (inhibitor) vs. response-variable slope (four parameters) nonlinear regression feature available in GraphPad Prism 5.0 (or Dotmatics).

Row | Structure (SMILES) | pEC50 [1] | pEC50 (SW480 colon cancer cells) | pEC50 (IL-6 (THP-1 cells)) | EC50 [3] [nM] | pEC50 [2] | Emax [3] [%] | inhibition at 10 µM ([1]; SW480, read-out: percent inhibition at 10 μM) [%] | inhibition at 10 µM (SW480 colon cancer cells; SW480, 96 h, read-out: percent inhibition at 10 μM) [%] | inhibition at 10 µM [2] [%]
1 | CCC(=O)Nc1cncc(-c2ccc3[nH]nc(-c4cc5c(-c6cccc(F)c6)nccc5[nH]4)c3c2)c1 [Compound 1, N-(5-(3-(4-(3-Fluorophenyl)-1H-pyrrolo[3,2-c]pyridin-2-yl)-1H-indazol-5-yl)pyridin-3-yl)propionamide] | 7.35 | 6.99 | 7.46 | – | 7.39 | 16 | – | – | –
2 | Fc1cccc(-c2nccc3[nH]c(-c4n[nH]c5ccc(-c6cccnc6)cc45)cc23)c1 [Compound 4, 3-(4-(3-Fluorophenyl)-1H-pyrrolo[3,2-c]pyridin-2-yl)-5-(pyridin-3-yl)-1H-indazole] | 6.85 | 6.34 | 6.79 | – | 7.36 | 32 | – | – | –
3 | CN(C)Cc1cncc(-c2ccc3[nH]nc(-c4cc5c(-c6cccc(F)c6)nccc5[nH]4)c3c2)c1 [Compound 13, 1-(5-(3-(4-(3-Fluorophenyl)-1H-pyrrolo[3,2-c]pyridin-2-yl)-1H-indazol-5-yl)pyridin-3-yl)-N,N-dimethylmethanamine] | 5.53 | 6.11 | 6.42 | – | 5.56 | 42 | – | – | –
4 | CCCC(=O)Nc1cncc(-c2ccc3[nH]nc(-c4cc5c(-c6cccc(F)c6)nccc5[nH]4)c3c2)c1 [Compound 17, N-(5-(3-(4-(3-Fluorophenyl)-1H-pyrrolo[3,2-c]pyridin-2-yl)-1H-indazol-5-yl)pyridin-3-yl)butyramide] | 7.30 | 7.03 | 7.47 | 2700 | 7.72 | 106 | – | – | –
5 | O=C(Nc1cncc(-c2ccc3[nH]nc(-c4cc5c(-c6cccc(F)c6)nccc5[nH]4)c3c2)c1)C1CC1 [Compound 20, N-(5-(3-(4-(3-Fluorophenyl)-1H-pyrrolo[3,2-c]pyridin-2-yl)-1H-indazol-5-yl)pyridin-3-yl)cyclopropanecarboxamide] | 7.30 | 6.75 | 7.41 | 2700 | 6.78 | 91 | – | – | –
6 | Fc1cccc(-c2nccc3[nH]c(-c4n[nH]c5ccc(-c6cncc(CN7CCC(F)(F)C7)c6)cc45)cc23)c1 [Compound 26, 5-(5-((3,3-Difluoropyrrolidin-1-yl)methyl)pyridin-3-yl)-3-(4-(3-fluorophenyl)-1H-pyrrolo[3,2-c]pyridin-2-yl)-1H-indazole] | 6.90 | 6.53 | 6.85 | 10 | 6.77 | 228 | – | – | –
7 | CN(C)Cc1cncc(-c2ccc3[nH]nc(-c4cc5c(-c6ccc(F)cc6)nccc5[nH]4)c3c2)c1 [Compound 41, 1-(5-(3-(4-(4-Fluorophenyl)-1H-pyrrolo[3,2-c]pyridin-2-yl)-1H-indazol-5-yl)pyridin-3-yl)-N,N-dimethylmethanamine] | < 5.00 | 5.52 | 5.03 | – | 5.58 | 46 | 55.7 | – | –
8 | Fc1ccc(-c2nccc3[nH]c(-c4n[nH]c5ccc(-c6cncc(CN7CCCC7)c6)cc45)cc23)cc1 [Compound 42, 3-(4-(4-Fluorophenyl)-1H-pyrrolo[3,2-c]pyridin-2-yl)-5-(5-(pyrrolidin-1-ylmethyl)pyridin-3-yl)-1H-indazole] | 5.44 | 5.85 | 5.05 | 30 | 5.87 | 98 | – | – | –
9 | CCCC(=O)Nc1cncc(-c2ccc3[nH]nc(-c4cc5c(-c6ccc(F)cc6)nccc5[nH]4)c3c2)c1 [Compound 45, N-(5-(3-(4-(4-Fluorophenyl)-1H-pyrrolo[3,2-c]pyridin-2-yl)-1H-indazol-5-yl)pyridin-3-yl)butyramide] | 6.28 | 6.58 | 6.03 | 900 | 6.58 | 142 | – | – | –

Now from value to compound, other results behind:

Row | pEC50 [1] | pEC50 (SW480 colon cancer cells) | pEC50 (IL-6 (THP-1 cells)) | EC50 [3] [nM] | Structure (SMILES) | pEC50 [2] | Emax [3] [%] | inhibition at 10 µM ([1]; SW480, read-out: percent inhibition at 10 μM) [%] | inhibition at 10 µM (SW480 colon cancer cells; SW480, 96 h, read-out: percent inhibition at 10 μM) [%] | inhibition at 10 µM [2] [%]
10 | 6.44 | 6.73 | 5.97 | 900 | O=C(Nc1cncc(-c2ccc3[nH]nc(-c4cc5c(-c6ccc(F)cc6)nccc5[nH]4)c3c2)c1)C1CCC1 [Compound 49, N-(5-(3-(4-(4-Fluorophenyl)-1H-pyrrolo[3,2-c]pyridin-2-yl)-1H-indazol-5-yl)pyridin-3-yl)cyclobutanecarboxamide] | 6.94 | 160 | – | – | –
11 | 5.82 | 5.98 | 5.81 | 10 | Fc1ccc(-c2nccc3[nH]c(-c4n[nH]c5ccc(-c6cncnc6)cc45)cc23)cc1 [Compound 55, 3-(4-(4-Fluorophenyl)-1H-pyrrolo[3,2-c]pyridin-2-yl)-5-(pyrimidin-5-yl)-1H-indazole] | 6.49 | 194 | – | – | –
12 | 7.22 | < 5.00 | 5.02 | 2700 | Nc1cncc(-c2ccc3[nH]nc(-c4cc5c(-c6ccccc6F)nccc5[nH]4)c3c2)c1 [Compound 59, 5-(3-(4-(2-Fluorophenyl)-1H-pyrrolo[3,2-c]pyridin-2-yl)-1H-indazol-5-yl)pyridin-3-amine] | < 5.00 | 70 | – | 43.5 | 46.6
13 | 5.47 | 5.89 | 5.54 | 900 | CCNCc1cncc(-c2ccc3[nH]nc(-c4cc5c(-c6ccccc6F)nccc5[nH]4)c3c2)c1 [Compound 62, N-((5-(3-(4-(2-Fluorophenyl)-1H-pyrrolo[3,2-c]pyridin-2-yl)-1H-indazol-5-yl)pyridin-3-yl)methyl)ethanamine] | 5.60 | 59 | – | – | –
14 | 5.99 | 5.82 | 5.12 | – | COc1cncc(-c2ccc3[nH]nc(-c4cc5c(-c6ccco6)nccc5[nH]4)c3c2)c1 [Compound 991, 3-(4-(Furan-2-yl)-1H-pyrrolo[3,2-c]pyridin-2-yl)-5-(5-methoxypyridin-3-yl)-1H-indazole] | – | 36 | – | – | –
15 | 7.03 | 6.26 | 7.03 | – | Nc1cncc(-c2ccc3[nH]nc(-c4cc5c(N6CCCCC6)nccc5[nH]4)c3c2)n1 [Compound 992, 6-(3-(4-(Piperidin-1-yl)-1H-pyrrolo[3,2-c]pyridin-2-yl)-1H-indazol-5-yl) pyrazin-2-amine] | < 5.00 | – | – | – | 0
